Test results: patent publication US20090176811A1, “Substituted 5,6,7,8-Tetrahydro-pyrido[4,3-d]pyrimidine-2-yl Compounds and 5,6,7,8-Tetrahydro-quinazoline-2-yl Compounds” (GRUENENTHAL GmbH, priority 2004, published 2009)

Test system: batrachotoxin (BTX) binding site of the sodium channel
Test: Affinity for the batrachotoxin (BTX) binding site of the sodium channel ([3H]-Batrachotoxinin A20 benzoate, rat cerebrocortex synaptosomes)
Conditions: [3H]-Batrachotoxinin A20 benzoate 10 nM, test concentration not given

Question: For `CC(C)(C)c1ccc(C(=O)Nc2ncc3c(n2)CCN(S(=O)(=O)c2ccc4c(c2)OCCO4)C3)cc1` [Example 186, 4-tert-butyl-N-[6-(2,3-dihydro-benzo[1,4]dioxin-6-sulfonyl)-5,6,7,8-tetrahydro-pyrido[4,3-d]pyrimidin-2-yl]-benzamide], which BTX inhibition is on record?
Answer: 77
